Data as given in patent US12215111B2, “Imidazopyridazine IL-17 inhibitor compounds” (Janssen Pharmaceutica NV, priority 2021, dated 2025).

What was measured:
[1] = target: T1, IL-17A(FLAG-Tagged): IL-17RA(His-Tagged) (Homo sapiens, UniProt Q16552, K93Q); test: IL-17A(FLAG-tagged):IL-17RA(His-tagged) binding disruption Eu-HTRF assay, Protocol 1; conditions: FLAG tagged IL-17A at 2× final concentration (2.5 nM); simple average if tested more than once
Excerpt: (§1) IL-17A(FLAG-Tagged): IL-17RA(His-Tagged) Binding Disruption Eu-HTRF Assay
(§2) An antibody directed against the FLAG tag of IL-17A (SEQ ID NO:1) is labeled with the HTRF donor chromophore (Europium-cryptate). IL-17A is present as a dimer that is “locked into” this quaternary structure due to the formation of loop-spanning […] disulfide bridges. The construct of IL-17RA used in the assay excludes the outer-membrane portion of the receptor and is fused to a C-terminal 10×His tag (SEQ ID NO:2). An antibody directed against the His tag of the IL-17RA chimera is labeled with the HTRF acceptor chromophore (“D2”). The fluorescence-resonance energy transfer (FRET) depends on the vicinity of the donor chromophore to the acceptor, and interruption of the binding between the IL-17A and IL-17RA causes the reduction/loss of FRET. Therefore, this assay allows to evaluate the compound effect on the binding IL-17A and IL-17RA by monitoring the fluorescence intensity of donor vs acceptor. The assay was run using either Protocol 1 or Protocol 2 described below.
(§3) Protocol 1: 40 nL of 2-fold serial diluted compound solution for total 22 dilution points is added into each well of a 1536-well, white, low-volume, non-binding plate (Greiner #782904), then 2 μl of FLAG tagged IL-17A at 2× final concentration (2.5 nM) in solution of PBS+0.01% Triton-X100 is added to each well. The assay plate is briefly centrifuged then incubated for 1 h at rt. A mixed solution is prepared containing 2×5 nM 10HIS×IL-17RA, 2×2.5 nM Eu-anti-FLAG (CISBIO), 2×5 nM D2-anti-HIS (CISBIO) in PBS+0.01% Triton-X100+200 mM Potassium Fluoride (Sigma 60238) and […] of mix is added to each well of the assay plate. The plate is briefly centrifuged then incubated for 2 h at rt. The HTRF intensities at the wavelength of donor (620 nm) and acceptor (665 nm) are measured using BMG Pherastar. The ratio between intensities at two wavelengths is calculated and plotted against the compound concentration and the data is fitted to a one-site competition model to yield IC50 of the compound.

[2] = target: T1, IL-17A(FLAG-Tagged): IL-17RA(His-Tagged); test: IL-17A(FLAG-tagged):IL-17RA(His-tagged) binding disruption Eu-HTRF assay, Protocol 2; conditions: FLAG tagged IL-17A at 2× final concentration (1 nM); simple average if tested more than once
Excerpt: as §1, §2
as §3, with “2.” for “1:”, “nl” for “nL”, “(1” for “(2.5”, “(615” for “(620”

[3] = system: IL-17A-induced G-CSF production in human normal keratinocyte (NHK); test: NHK assay: IL-17A-induced G-CSF production in normal human keratinocytes; assay type: cell-based; conditions: Homo sapiens, Keratinocyte; IL-17A 5 ng/mL, 24 h at 37° C., G-CSF by HTRF; simple average if tested more than once
In short: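 Compound titrations are first mixed with recombinant human IL-17A for 1 h at room temperature. The mixture goes onto adult normal human keratinocytes (final IL-17A 5 ng/mL, 5% FBS, 0.2% DMSO) for 24 h at 37 °C. Secreted G-CSF is then measured by HTRF and IC50 fitted.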

[4] = moderate-to-severe HS, seven of nine patients, open-label pilot-trial; cited from earlier work

T1 sequence (Q16552 with tags, fused parts or gaps K93Q): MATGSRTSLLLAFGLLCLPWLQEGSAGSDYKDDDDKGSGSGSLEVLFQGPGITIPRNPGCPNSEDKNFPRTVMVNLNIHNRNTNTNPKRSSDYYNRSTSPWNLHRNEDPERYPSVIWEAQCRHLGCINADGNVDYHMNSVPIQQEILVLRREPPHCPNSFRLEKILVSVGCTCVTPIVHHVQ

Row | Molecule | IC50 [1] | IC50 [2] | IC50 [3] | patients who achieved HiSCR [4]
1 | O=C(N[C@H](c1cn2ncc(CN3C(=O)N[C@@H]4CC(F)(F)C[C@@H]43)cc2n1)C1CCC(F)(F)CC1)c1nonc1C1CC1 (single isomer, unassigned) [Example 7, 4-Cyclopropyl-N—((S)-(7-(((3aR*,6aS*)-5,5-difluoro-2-oxohexahydrocyclopenta[d]imidazol-1(2H)-yl)methyl)imidazo[1,2-b]pyridazin-2-yl)(4,4-difluorocyclohexyl)methyl)-1,2,5-oxadiazole-3-carboxamide] | < 4 µM | < 4 µM | < 4 µM | –
2 | COC[C@H](c1cnn2cc([C@@H](NC(=O)c3nonc3C)C3CCC(F)(F)CC3)nc2c1)N1C[C@@H](C2(C#N)CC2)NC1=O [Example 25, N—((S)-(7-((S)-1-((R)-4-(1-Cyanocyclopropyl)-2-oxoimidazolidin-1-yl)-2-methoxyethyl)imidazo[1,2-b]pyridazin-2-yl)(4,4-difluorocyclohexyl)methyl)-4-methyl-1,2,5-oxadiazole-3-carboxamide] | – | < 4 µM | < 4 µM | –
3 | COC[C@H](c1cnn2cc([C@@H](NC(=O)c3nonc3C)C3CCC(F)(F)CC3)nc2c1)N1C[C@@H](C(F)F)NC1=O [Example 26, N—((S)—(4,4-Difluorocyclohexyl)(7-((S)-1-((S)-4-(difluoromethyl)-2-oxoimidazolidin-1-yl)-2-methoxyethyl)imidazo[1,2-b]pyridazin-2-yl)methyl)-4-methyl-1,2,5-oxadiazole-3-carboxamide] | – | < 4 µM | < 4 µM | –
4 | COC[C@H](c1cnn2cc([C@@H](NC(=O)c3nonc3C)[C@@H](C)O[C@H](C)C(F)(F)F)nc2c1)N1C[C@@H](C(F)(F)F)NC1=O [Example 27, N-((1R,2R)-1-(7-((S)-2-Methoxy-1-((S)-2-oxo-4-(trifluoromethyl)imidazolidin-1-yl)ethyl)imidazo[1,2-b]pyridazin-2-yl)-2-(((R)-1,1,1-trifluoropropan-2-yl)oxy)propyl)-4-methyl-1,2,5-oxadiazole-3-carboxamide] | – | < 4 µM | < 4 µM | –
5 | Cc1nonc1C(=O)N[C@@H](CC(C)(C)C(F)(F)F)c1cn2ncc([C@@H](COC3CC3)N3C[C@@H](C(F)(F)F)NC3=O)cc2n1 [Example 37] | – | < 4 µM | < 4 µM | –
6 | COCC[C@H](c1cnn2cc([C@@H](NC(=O)c3nonc3C3CC3)C3CCC(F)(F)CC3)nc2c1)N1C[C@@H](C(F)(F)F)NC1=O [Example 41, 4-Cyclopropyl-N—((S)—(4,4-difluorocyclohexyl)(7-((R)-3-methoxy-1-((S)-2-oxo-4-(trifluoromethyl)imidazolidin-1-yl)propyl)imidazo[1,2-b]pyridazin-2-yl)methyl)-1,2,5-oxadiazole-3-carboxamide] | – | < 4 µM | < 4 µM | –
7 | Cc1nonc1C(=O)N[C@@H](COC(C)(C)C(F)(F)F)c1cn2ncc([C@@H](COC3CC3)N3C[C@@H](C(F)(F)F)NC3=O)cc2n1 [Example 45] | – | < 4 µM | < 4 µM | –
8 | CC(C)n1nccc1C(=O)N[C@H](c1cn2ncc(CN3CC4(CC(F)(F)C4)NC3=O)cc2n1)C1CCC(F)(F)CC1 [Example 46, (S)—N-((7-((2,2-Difluoro-6-oxo-5,7-diazaspiro[3.4]octan-7-yl)methyl)imidazo[1,2-b]pyridazin-2-yl)(4,4-difluorocyclohexyl)methyl)-1-isopropyl-1H-pyrazole-5-carboxamide] | – | < 4 µM | 4 to 10 µM | –
9 | COC[C@H](c1cnn2cc([C@H](CCC(C)(C)C(F)(F)F)NC(=O)c3nonc3OC)nc2c1)N1C[C@@](C)(C(F)(F)F)NC1=O [Example 47, 4-Methoxy-N—((S)-5,5,5-trifluoro-1-(7-((S)-2-methoxy-((S)-4-methyl-2-oxo-4-(trifluoromethyl)imidazolidin-1-yl)ethyl)imidazo[1,2-b]pyridazin-2-yl)-4,4-dimethylpentyl)-1,2,5-oxadiazole-3-carboxamide] | – | < 4 µM | < 4 µM | –
10 | Cc1nonc1C(=O)N[C@@H](CCC(C)(C)C(F)(F)F)c1cn2ncc(CN3C[C@@](C)(C(F)(F)F)NC3=O)cc2n1 [Example 48, 4-Methyl-N—((S)-5,5,5-trifluoro-4,4-dimethyl-1-(7-(((S)-4-methyl-2-oxo-4-(trifluoromethyl)imidazolidin-1-yl)methyl)imidazo[1,2-b]pyridazin-2-yl)pentyl)-1,2,5-oxadiazole-3-carboxamide] | – | < 4 µM | < 4 µM | –
11 | Cc1nonc1C(=O)N[C@@H](CCC(C)(C)C(F)(F)F)c1cn2ncc(CN3C[C@](C)(C(F)(F)F)NC3=O)cc2n1 [Example 49, 4-Methyl-N—((S)-5,5,5-trifluoro-4,4-dimethyl-1-(7-(((R)-4-methyl-2-oxo-4-(trifluoromethyl)imidazolidin-1-yl)methyl)imidazo[1,2-b]pyridazin-2-yl)pentyl)-1,2,5-oxadiazole-3-carboxamide] | – | < 4 µM | < 4 µM | –
12 | secukinumab | – | – | – | 78%
